Experimental findings from the NIST ThermoML archive (doi:10.1021/acs.jced.5b00679) are described below.

Structures are written as SMILES. ± gives the expanded uncertainty stated by the source.

The nature of series [1]: Molar enthalpy of transition or fusion. The conditions noted are these: Crystal; DSC.
The conditions of series [2]: Crystal; DTA.

`c1ccc2c3c([nH]c2c1)CCCC3` [2,3,4,9-tetrahydro-1H-carbazole]: in series [1], the “Molar enthalpy of transition or fusion” value is 4.27 ± 0.1 kcal/mol. In series [2], the Normal melting temperature is 118.2 ± 2 °C.

For the compound `CC(C)n1c2ccccc2c2ccccc21` [9-(1-methylethyl)carbazole], in series [1], the “Molar enthalpy of transition or fusion” value was 4.36 ± 0.184 kcal/mol. Further, the Normal melting temperature in series [2] was 120.8 ± 2 °C.

Consider `CCn1c2c(c3c1CCCC3)CCCC2` [9-ethyl-2,3,4,5,6,7,8,9-octahydro-1H-carbazole], for which the “Molar enthalpy of transition or fusion” value in series [1] was determined as 4.92 ± 0.139 kcal/mol. Further, in series [2], the Normal melting temperature turned out to be 43 ± 2 °C.

Take `CCn1c2c(c3ccccc31)CCCC2` [9-ethyl-2,3,4,9-tetrahydrocarbazole]: the “Molar enthalpy of transition or fusion” value in series [1] worked out at 2.97 ± 0.0765 kcal/mol. Also, the Normal melting temperature in series [2] turned out to be 9.2 ± 2 °C.

For `CCn1c2ccccc2c2ccccc21` [9-ethylcarbazole], the “Molar enthalpy of transition or fusion” value in series [1] is 3.96 ± 0.12 kcal/mol. For the same compound, in series [2], the Normal melting temperature is 69.2 ± 2 °C.

In the case of `Cn1c2ccccc2c2ccccc21` [9-methyl-9H-carbazole], the “Molar enthalpy of transition or fusion” value in series [1] came to 3.93 ± 0.136 kcal/mol. In addition, the Normal melting temperature in series [2] was 88 ± 2 °C.

In the case of `c1ccc2c(c1)[nH]c1ccccc12` [9H-carbazole], the “Molar enthalpy of transition or fusion” value in series [1] was determined as 6.62 ± 0.201 kcal/mol. Besides, the Normal melting temperature in series [2] was found to be 244.0 ± 2 °C.

`CCCCn1c2ccccc2c2ccccc21` [N-butyl-9H-carbazole]: the “Molar enthalpy of transition or fusion” value in series [1] turned out to be 5.45 ± 0.136 kcal/mol. In series [2], the Normal melting temperature was 57.5 ± 2 °C.

Take `CCCn1c2ccccc2c2ccccc21` [N-propyl-9H-carbazole]: in series [1], the “Molar enthalpy of transition or fusion” value was 4.68 ± 0.117 kcal/mol. In addition, in series [2], the Normal melting temperature was 47.2 ± 2 °C.
